Earlier results in patent US10350288B2, “Methods and compositions for treating herpes” (Genocea Biosciences, Inc., priority 2016, dated 2019).
Read-outs that look alike come from different tables or passages of the source.

Tests used:
HSV-2 [1] = test system: HSV-2
HSV-2 [2] = conditions: human, in vivo
HSV [3] = conditions: patients with genital herpes
HSV [4] = conditions: once-daily; efficacy comparable to valacyclovir twice daily for 3 days

CC(C)[C@H](N)C(=O)OCCOCn1cnc2c(=O)[nH]c(N)nc21 [valacyclovir]
proportion of patients who remained recurrence-free (HSV-2 [1]; at 6 months, placebo 7%): 55% | proportion of patients who remained recurrence-free (HSV-2 [1]; at 12 months, placebo 4%): 34% | reduction of transmission of HSV-2 from infected persons to uninfected partners (HSV-2 [2]): 48%

Nc1nc2c(ncn2CCC(CO)CO)c(=O)[nH]1 [Penciclovir, penciclovir]
oral bioavailability: not orally bioavailable

Cc1nc(N(C)C(=O)Cc2ccc(-c3ccccn3)cc2)sc1S(N)(=O)=O [Pritelivir, pritelivir]
reduction of viral shedding and lesion rate (HSV [3]): has shown efficacy

Cc1cccc(C)c1N(CC(=O)Nc1ccc(-c2ncon2)cc1)C(=O)C1CCS(=O)(=O)CC1 [amenamevir]
time to lesion healing shortened by (HSV [4]): 1 to 2 days
